Measurements reported in patent publication US10132029B2, “Method for reducing adhesion of microorganisms to fabrics” (priority 2013, dated 2018).
Where two headings read alike, the source gives them in different places.

Experiments:
P. aeruginosa DSMZ 1117 = format: cell-based, Pseudomonas aeruginosa; conditions: for Reduction in adhered bacteria [%]: P. aeruginosa, polyester; for Reduction in adhered bacteria [%] P. aeruginosa: polyester fabric, application concentration 0.1 wt %, commercial product applied directly by padding, relative to uncoated fabric
Method: (§1) Circular fabric samples with a diameter of 0.6 cm were punched from coated and uncoated cotton and polyester fabrics. The fabric samples were fixed to a microtiter plate. The fabric samples were washed with acetone and sterilized with UV light for 60 minutes.
(§2) The strains were coated fresh from glycerol bacterial cultures onto tryptic soy agar (TSA). Incubation took place overnight at 33° C. The nutrient medium prepared was a tryptic soy broth (TSB), with 30% of the amount recommended by the manufacturer, supplemented with 0.25% of glucose. […] The nutrient medium was inoculated with the bacterial cultures and after inoculation was cultivated overnight at 37° C. and 160 rpm.
(§3) The resulting overnight cultures were centrifuged at 8500 g for 15 minutes and washed with 50 ml of isotonic saline solution (0.9 wt %). Bacterial suspensions in isotonic saline solutions were prepared. The optical density of the various bacterial suspensions was determined at 595 nm and adjusted to a level of about 1.2.
(§4) 50 μl of the final microorganism suspension in isotonic saline solution (0.9 wt %) prepared as described under 2.2 were added to the coated and uncoated fabric samples fixed on the microtiter plate (see 2.1). The microtiter plates were closed and sealed off with Parafilm. The microtiter plates were placed in an antievaporation box and incubated at 33° C. for 2 h and at 40 rpm. The expected colony-forming unit count (CFU) of the inoculum at the start was 10^6-10^7 CFU/ml.
After the biofilm had formed, the planctonic cells were removed and used as a sample for determining the optical density at 595 nm. For this purpose, the samples were made up to a volume of 150 μl, and 100 μl were withdrawn for the optical density determination in a photometer. […] Through the determination of the planctonic cells after the formation of biofilm, the amount of bacteria available for adhesion was monitored.
(§5) The fabric samples and the resulting biofilm were washed three times with 200 to 300 μl of isotonic saline solution.
(§6) The fabric samples obtained under 2.4 (after formation of biofilm) were placed together with 100 μl of isotonic saline solution into wells of a 96-well microtiter plate.
(§7) Investigations into the removal of the adhered microorganisms from the fabric surfaces were carried out with vortexing, ultrasound, with enzymatic treatment, or with combinations thereof. Treatment in the vortex amounted to 5 minutes and was performed horizontally. The ultrasound treatment was carried out in an ultrasound bath for 5 minutes. For the enzymatic removal, the fabric samples were treated with enzymes, such as trypsin or a mixture of different enzymes, for example, during incubation at 37° C. for 1 hour.
(§8) Following removal of the adhered bacteria, the fabric samples were removed from the microtiter plates.
(§9) The number of removed bacteria in the resulting suspension was determined by staining with Syto9 and fluorescence measurement (fluorescence filter with excitation at 485/20 nm and emission at 528/20 nm) or by staining with BacTiterGlo and bioluminescence measurement. Furthermore, it is possible to determine the number of adhered and removed microorganisms by means of protein assay (e.g., BCA assay, Bradford Assay) or optical density proliferation assay.
The relative variables (e.g., fluorescence units (RFU)) concerning the coated and uncoated fabrics were compared, allowing the reduction in adhered bacteria in % to be determined in accordance with the following formula: Reduction in adhered bacteria[%]=[(RFUuc−RFUuc)/RFUuc]*100 where • RFUuc=relative fluorescence units of the removed bacteria of the uncoated substrate • RFUc=relative fluorescence units of the removed bacteria of the coated substrate
The commercial products described in example 1 were applied directly by a padding method to polyester fabric samples.
Bacterial adhesion to the polyester fabric samples was investigated using the microtiter plate Syto9 assay, as described in example 2.

Staphylococcus aureus = format: cell-based; conditions: for Reduction in cell count relative to control [%] S. aureus: coated glass slide vs uncoated glass control K; for Cell count [1/cm^2] S. aureus: glass slide coated from 0.1% strength solution, bacterial suspension 10^9 microbes/ml, 30 measuring windows
Excerpt: (§10) Silane derivatives S1, S3, S4 and S5 as identified above in example 1 were used to produce coatings on glass slides. As a control (comparison sample) K, an uncoated glass slide cleaned with isopropanol was used.
(§11) For the coating of the slides they were immersed for 60 seconds into a 0.1% strength solution of the corresponding silane derivative in ethanol/water as solvent with a water fraction of 5%. The solutions had been adjusted with acetic acid beforehand to a pH in the range from 4 to 5. The wetted slides were subsequently dried at 160° C. for 1 hour.
(§12) The slides wetted with the bacterial suspension were analyzed by microscope to determine the adhering bacteria. […] The fluorescent dye used was DAPI (4′,6-diamidine-2-phenylindole), which binds to DNA and fluoresces under UV excitation. In order to determine the adhesion characteristics, the cell counts per cm^2 were ascertained in 30 measuring windows, and the adhesion pattern was evaluated. Cell attachment was evaluated on an Olympus IX 51 using the Labflow AnalySIS image processing program.
(§13) Bacterial suspensions produced and used were suspensions of test cultures of the strains Staphylococcus aureus and Escherichia coli. The concentration of the bacterial suspension was 10^9 microbes/ml.

Escherichia coli = experiment: Bacterial adhesion to coated glass slides via fluorescence microscopy (DAPI); format: cell-based; conditions: for Reduction in cell count relative to control [%] E. coli: coated glass slide vs uncoated glass control K; for Cell count [1/cm^2] E. coli: glass slide coated from 0.1% strength solution, bacterial suspension 10^9 microbes/ml, 30 measuring windows
Excerpt: as §10, §11, §12, §13

S. aureus DSMZ 20231 = experiment: Syto9 microtiter plate assay: adhesion of bacteria to coated polyester fabric samples; format: cell-based, Staphylococcus aureus; conditions: for Reduction in adhered bacteria [%]: S. aureus, polyester; for Reduction in adhered bacteria [%] S. aureus: polyester fabric, application concentration 0.1 wt %, commercial product applied directly by padding, relative to uncoated fabric
Method: as §1, §2, §3, §4
After the biofilm had formed, the planctonic cells were removed and used as a sample for determining the optical density at 595 nm. For this purpose, the samples were made up to a volume of 150 μl, and 100 μl were withdrawn for the optical density determination in a photometer. The optical density of the corresponding control solution with sterile isotonic saline solution was subtracted from the optical densities found. Through the determination of the planctonic cells after the formation of biofilm, the amount of bacteria available for adhesion was monitored.
as §5, §6, §7, §8, §9
The relative variables (e.g., fluorescence units (RFU)) concerning the coated and uncoated fabrics were compared, allowing the reduction in adhered bacteria in % to be determined in accordance with the following formula: Reduction in adhered bacteria[%]=[(RFUuc−RFUuc)/RFUuc]*100 where • RFUuc=relative fluorescence units of the removed bacteria of the uncoated substrate • RFUc=relative fluorescence units of the removed bacteria of the coated substrate […]

[1] = coating concentration 0.001 %, wash pretreatment (A) unwashed
[2] = coating concentration 0.001 %, wash pretreatment (B) washed twice at 30° C. only with water
[3] = coating concentration 0.001 %, wash pretreatment (C) washed once at 30° C. EN ISO 6330 method 8A with ECE B detergent
[4] = coating concentration 0.01 %, wash pretreatment (A) unwashed
[5] = coating concentration 0.01 %, wash pretreatment (B) washed twice at 30° C. only with water
[6] = coating concentration 0.01 %, wash pretreatment (C) washed once at 30° C. EN ISO 6330 method 8A with ECE B detergent
[7] = coating concentration 0.1 %, wash pretreatment (A) unwashed
[8] = coating concentration 0.1 %, wash pretreatment (B) washed twice at 30° C. only with water
[9] = coating concentration 0.1 %, wash pretreatment (C) washed once at 30° C. EN ISO 6330 method 8A with ECE B detergent

| Compound | Reduction in adhered bacteria [%] (P. aeruginosa DSMZ 1117; [1]) | Reduction in adhered bacteria [%] (P. aeruginosa DSMZ 1117; [2]) | Reduction in adhered bacteria [%] (P. aeruginosa DSMZ 1117; [3]) | Reduction in adhered bacteria [%] (P. aeruginosa DSMZ 1117; [4]) | Reduction in adhered bacteria [%] (P. aeruginosa DSMZ 1117; [5]) | Reduction in adhered bacteria [%] (P. aeruginosa DSMZ 1117; [6]) | Reduction in adhered bacteria [%] (P. aeruginosa DSMZ 1117; [7]) | Reduction in adhered bacteria [%] (P. aeruginosa DSMZ 1117; [8]) | Reduction in adhered bacteria [%] (P. aeruginosa DSMZ 1117; [9]) | Reduction in adhered bacteria [%] P. aeruginosa (P. aeruginosa DSMZ 1117) | Reduction in cell count relative to control [%] S. aureus (Staphylococcus aureus) | Cell count [1/cm^2] S. aureus (Staphylococcus aureus) | Reduction in cell count relative to control [%] E. coli (Escherichia coli) | Cell count [1/cm^2] E. coli (Escherichia coli) | Reduction in adhered bacteria [%] (S. aureus DSMZ 20231; [1]) | Reduction in adhered bacteria [%] (S. aureus DSMZ 20231; [2]) | Reduction in adhered bacteria [%] (S. aureus DSMZ 20231; [3]) | Reduction in adhered bacteria [%] (S. aureus DSMZ 20231; [4]) | Reduction in adhered bacteria [%] (S. aureus DSMZ 20231; [5]) | Reduction in adhered bacteria [%] (S. aureus DSMZ 20231; [6]) | also measured |
| --- | --- | --- | --- | --- | --- | --- | --- | --- | --- | --- | --- | --- | --- | --- | --- | --- | --- | --- | --- | --- | --- |
| CO[Si](CCCN(CCN(CC(=O)[O-])CC(=O)[O-])CC(=O)[O-])(OC)OC.[Na+].[Na+].[Na+] [S5, N-(trimethoxysilylpropyl)ethylenediaminetriacetyl acid, trisodium salt] | 81% | 42% | 77% | 78% | 54% | 73% | 68% | 69% | 67% | 17% | 52% | 219 000 1/cm^2 | 61% | 306 000 1/cm^2 | 69% | 59% | 75% | 44% | 22% | 53% | Reduction in adhered bacteria [%] (S. aureus DSMZ 20231; [7]): 72%; Reduction in adhered bacteria [%] (S. aureus DSMZ 20231; [8]): 68%; Reduction in adhered bacteria [%] (S. aureus DSMZ 20231; [9]): 38%; Reduction in adhered bacteria [%] S. aureus (S. aureus DSMZ 20231): 46% |
| N-(triethoxysilylpropyl)-O-polyethylene oxide-urethane, (4-6 EO units) [S3] | 63% | 46% | 69% | 65% | 37% | 71% | 85% | 36% | 76% | 48% | 83% | 77 000 1/cm^2 | 71% | 233 000 1/cm^2 | 57% | 54% | 69% | 63% | 34% | 58% | adhesion of S. aureus to coated glass, assessment in words (Staphylococcus aureus; coated glass slides): Very good results; adhesion of bacteria to coated glass, assessment in words (Escherichia coli; both series of tests (S. aureus and E. coli), compared with glass control): very good results; Reduction in adhered bacteria [%] (S. aureus DSMZ 20231; [7]): 47%; Reduction in adhered bacteria [%] (S. aureus DSMZ 20231; [8]): 46%; Reduction in adhered bacteria [%] (S. aureus DSMZ 20231; [9]): 61%; Reduction in adhered bacteria [%] S. aureus (S. aureus DSMZ 20231): 55% |
